Laboratory results from patent publication US12594283B2 (The Medical College of Wisconsin, Inc., priority 2019, dated 2026).
pIC50: −log10 of the molar value. Like-named read-outs stand apart in the source and are kept apart here.

Tests used:
[1] = test system: CD4+ T cells from SMARTA triple reporter mice; experiment: In vitro differentiation of CD4+ T regulatory cells, flow cytometry; format: cell-based, mouse; conditions: for Treg (FoxP3+CD25+) differentiation and/or survival: six days culture with TGFβ and IL-2, ATO, butyl-ATO, decyl-ATO up to 60 μM; for Teff cell IFNγ production: six days culture, IFNγ-GFP positive cells within live CD4+ T cells
From the text: FIG. 5. In vitro differentiation of CD4^+ T regulatory cells under varying concentrations of Mito-ATOs and controls. After six days of culture, cells were stained for flow cytometry analysis. (left) Live/dead staining to assess the percentage of live CD4+ T cells within the lymphocyte gate. (middle) Teff cell function is shown as the frequency of IFNγ-GFP positive cells within the live CD4^+ T cells. (right) The percentage of Treg cells is shown as the frequency of FoxP3^+CD25^+ cells within the live CD4^+ T cells.
After six days, cells were stained to assess viability, phenotype, and function using the flow cytometry.
Mice. SMARTA triple reporter mice were generated in the following manner. First, IL-10 and IL-21 double-reporter mice^33 were generated by cross-breeding IL-21tRFP mice^34-35 with 10 BiT mice (kindly provided by Dr. Casey Weaver, University of Alabama at Birmingham). Double reporter mice were then crossed with GREAT (interferon-gamma reporter with endogenous polyA transcript) mice^36 from Jackson Laboratory (Stock No. 017581). These triple-reporter mice were then crossed with SMARTA mice^37 (kindly provided by Dr. Dorian McGavern, National Institutes of Health). Mice were bred and maintained in a closed breeding facility, and mouse handling conformed to the requirements of the Medical College of Wisconsin Institutional Animal Care and Use Committee guidelines. All experimental protocols were approved by the Medical College of Wisconsin Institutional Animal Care and Use Committee.
Cell culture. To differentiate CD4^+ T cells into a T regulatory cell phenotype, splenocytes from SMARTA triple-reporter mice were processed and the red blood cell lysed using an ACK (ammonium-chloride-potassium) lysis buffer. The cells were then activated with 1 μg/mL […] peptide (GenScript, Piscataway, NJ) and 5 ng/mL TGF-β1 (Shenandoah Biotechnology, Inc., Warwick, PA). […] Cells were cultured for six days and split once cells reached confluency; cells were replenished with IL-2 and compound accordingly. After six days in culture, cells were stained to assess the viability and phenotypic analysis via flow cytometry. LIVE/DEAD fixable violet or aqua dead cell stain (Invitrogen, Carlsbad, CA) was used to assess cell viability. The following antibodies were used for flow cytometry staining: PercP anti-mouse CD4 (clone: GK1.5; BioLegend, San Diego, CA), APC/Cy7 anti-mouse CD25 (clone: PC61; BioLegend), and PE anti-mouse FOXP3 (clone: FJK-16S; eBioscience, San Diego, CA). Flow cytometry data were acquired using a BD LSRII (BD Biosciences, CA) flow cytometer and analysed using FlowJo (Treestar, Inc., Ashland, OR).

[2] = test system: MiaPaCa-2 cells; experiment: MiaPaCa-2 cell proliferation, IncuCyte live-cell imaging (cell confluence); format: cell-based, human; conditions: for pIC50: Homo sapiens; for antiproliferative effect compared with corresponding Mito-ATO analog: MiaPaCa-2 cells, controls lacking TPP+ (FIG. 9)
From the text: FIG. 1. […] (A) Chemical structures of ATO and Mito-ATO analogs. […] Cell proliferation was monitored in real-time with the continuous presence of indicated treatments until the end of each experiment. […] Dashed lines represent the fitting curves used to determine their IC50 values as indicated.
(§1) The IncuCyte Live-Cell Imaging system (IncuCyte Essen Bioscience Inc., Ann Arbor, MI) was used to monitor cell proliferation.^11-13 As shown in previous publications,^11,12 this imaging system is probe-free and noninvasive, and enables continuous monitoring of cell confluence over several days. The increase in the percentage of cell confluence was used as a surrogate marker of cell proliferation. In a 96-well plate, cells were plated at 1,000 cells per well in triplicates and left to adhere overnight.

[3] = molecular target: cyt bc1 (Homo sapiens, UniProt P00156); conditions: mammalian cells; cited from earlier work
Chain of cyt bc1 (Homo sapiens, UniProt P00156) (P00156 whole entry): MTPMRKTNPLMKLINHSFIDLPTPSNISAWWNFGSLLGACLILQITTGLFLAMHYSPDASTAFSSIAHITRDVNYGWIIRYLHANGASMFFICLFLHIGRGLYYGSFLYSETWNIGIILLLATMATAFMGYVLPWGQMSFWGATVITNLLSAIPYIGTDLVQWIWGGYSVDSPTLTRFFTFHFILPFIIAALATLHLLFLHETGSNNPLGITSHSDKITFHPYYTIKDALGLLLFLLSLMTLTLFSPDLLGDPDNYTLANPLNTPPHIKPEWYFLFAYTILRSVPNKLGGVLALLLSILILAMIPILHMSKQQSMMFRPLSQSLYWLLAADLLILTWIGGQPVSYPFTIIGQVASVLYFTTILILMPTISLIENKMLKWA

[4] = test system: cyt bc1; conditions: P. falciparum, Y265S mutations (so in the source); cited from earlier work
[5] = test system: MiaPaCa-2 and A549 cells; experiment: Cellular uptake by LC-MS/MS; format: cell-based, human; conditions: Mito10-ATO 0.1 and 1 μM, ATO 1-10 μM; 1, 2, 4 and 24 h
Method: The compounds were extracted according to the published experimental protocol.^11,12 Briefly, cells were washed twice with ice-cold DPBS (Dulbecco's Phosphate Buffered Saline) and harvested. The cell pellet was immediately frozen in liquid nitrogen and stored at −80° C. For the extraction, the pellet was homogenized in 200 μl DPBS (2 μl were taken for protein assay) and extracted twice with a dichloromethane:methanol (2:1) mixture. The organic layers were combined and dried using a SpeedVac concentrator (Thermo Fisher Scientific, Waltham MA). The dry residue was dissolved in ice-cold methanol and taken for LC-MS/MS analysis. LC-MS/MS analyses were performed using a Kinetex Phenyl-Hexyl column (50 mm×2.1 mm, 1.7 μm; Phenomenex, Torrance, CA) equilibrated with a water:acetonitrile mixture (4:1) containing 0.1% formic acid. Compounds were eluted by increasing the content of acetonitrile from 20% to 100% over 4 min and detected using the MRM (multiple reaction monitoring) mode.

[6] = molecular target: T1, mitochondrial complex III (Homo sapiens, UniProt P00156+P47985); experiment: Mitochondrial complex III-driven oxygen consumption rate (Seahorse XF96) in permeabilized MiaPaCa-2 cells; format: cell-based; conditions: 24 h treatment
T1 construct: endogenous in cells; host or cells: MiaPaCa-2
Method: FIG. 2. Effects of Mito-ATO analogs on the oxygen consumption induced by mitochondrial complexes I and III. […] MiaPaCa-2 cells were treated with Mito-ATO for 24 h. Relative complex I (1.5 mM malate, 10 mM pyruvate, 10 mM ADP)-driven OCR (left) and relative complex III (0.5 mM duroquinol, 10 mM ADP)-driven OCR (right) were monitored by XF-96 analyser. Either Rot (complex I inhibitor) or antimycin A (AA, complex III inhibitor) was acutely added and OCR assayed immediately. […] Dashed lines represent the fitting curves used for determination of the IC50 values. (n.a., not applicable).
The mitochondrial complex activities were assessed by measuring the oxygen consumption rate (OCR) using the Seahorse technique.^6,11-4 MiaPaCa-2 cells were treated separately with Mito-ATO analogs at different concentrations for 24 h and OCR was measured.
(§2) Mitochondrial bioenergetic function was measured in real time using the Seahorse XF 96 Extracellular Flux Analyzer (Agilent, North Billerica, MA).^11-13,22 The OCR-based assessment of mitochondrial complex activities was carried out on acutely permeabilized cells in the presence of different mitochondrial substrates, i.e., pyruvate/malate, for complex I and duroquinol for complex III.^11,14,31,32 Rot, malonate, and antimycin A (Sigma-Aldrich, St. Louis, MO) were used as specific inhibitors of mitochondrial complexes I, II, and III, respectively. Briefly, cells that were intact after treatments were immediately permeabilized using the Seahorse XF Plasma Membrane Permeabilizer (Agilent). The mitochondrial complex I-driven OCR was assayed in mannitol and sucrose buffer^31 containing 10 mM pyruvate and 1.5 mM malate (substrates for complex I) and 10 mM malonate (which inhibits complex II activities). The mitochondrial complex III-driven OCR was assayed in mannitol and sucrose buffer containing 0.5 mM duroquinol (substrate for complex III) and 1 μM Rot and 10 mM malonate (which inhibit both complex I and II activities). The mitochondrial complex-dependent oxygen consumption (calculated as Rot- or antimycin A-inhibitable OCR equals basal OCR less OCR after Rot or antimycin A injection) was plotted against concentrations to determine the IC50 values.

[7] = molecular target: mitochondrial complex I (Homo sapiens, UniProt O75251+O75306+P03886); experiment: Mitochondrial complex I-driven oxygen consumption rate (Seahorse XF96) in permeabilized MiaPaCa-2 cells; format: cell-based; conditions: 24 h treatment
Chain of mitochondrial complex I (Homo sapiens, UniProt O75251+O75306+P03886) (O75306 34-463): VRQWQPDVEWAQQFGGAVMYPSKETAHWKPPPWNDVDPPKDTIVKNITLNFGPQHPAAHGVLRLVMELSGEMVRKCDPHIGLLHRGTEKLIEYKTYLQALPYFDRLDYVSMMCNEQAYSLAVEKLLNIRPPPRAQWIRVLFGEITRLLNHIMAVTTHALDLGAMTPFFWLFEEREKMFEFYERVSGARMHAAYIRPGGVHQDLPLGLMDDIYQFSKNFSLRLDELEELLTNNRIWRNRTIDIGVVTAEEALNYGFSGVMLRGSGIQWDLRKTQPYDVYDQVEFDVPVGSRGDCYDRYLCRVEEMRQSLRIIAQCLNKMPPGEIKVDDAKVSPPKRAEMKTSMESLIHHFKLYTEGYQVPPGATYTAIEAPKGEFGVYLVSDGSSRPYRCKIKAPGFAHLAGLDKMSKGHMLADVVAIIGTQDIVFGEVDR
Chain of mitochondrial complex I (Homo sapiens, UniProt O75251+O75306+P03886) (O75251 39-213): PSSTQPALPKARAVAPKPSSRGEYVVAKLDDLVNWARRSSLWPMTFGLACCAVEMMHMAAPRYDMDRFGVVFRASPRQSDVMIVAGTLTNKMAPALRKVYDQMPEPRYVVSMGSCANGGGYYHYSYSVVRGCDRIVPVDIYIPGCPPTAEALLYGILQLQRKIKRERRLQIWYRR
Chain of mitochondrial complex I (Homo sapiens, UniProt O75251+O75306+P03886) (P03886 whole entry): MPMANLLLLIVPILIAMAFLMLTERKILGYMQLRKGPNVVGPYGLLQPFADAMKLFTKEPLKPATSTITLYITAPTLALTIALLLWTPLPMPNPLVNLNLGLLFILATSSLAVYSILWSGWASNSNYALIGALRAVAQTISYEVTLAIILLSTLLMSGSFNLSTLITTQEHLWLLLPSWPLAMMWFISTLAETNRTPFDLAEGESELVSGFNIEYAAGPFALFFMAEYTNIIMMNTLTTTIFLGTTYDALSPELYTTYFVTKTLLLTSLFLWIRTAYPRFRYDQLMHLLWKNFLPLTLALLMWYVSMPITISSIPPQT
Method: FIG. 2. […] Relative complex I (1.5 mM malate, 10 mM pyruvate, 10 mM ADP)-driven OCR (left) and relative complex III (0.5 mM duroquinol, 10 mM ADP)-driven OCR (right) were monitored by XF-96 analyser. Either Rot (complex I inhibitor) or antimycin A (AA, complex III inhibitor) was acutely added and OCR assayed immediately. […] Dashed lines represent the fitting curves used for determination of the IC50 values.
Briefly, cells that were intact after treatments were immediately permeabilized using the Seahorse XF Plasma Membrane Permeabilizer (Agilent). The mitochondrial complex I-driven OCR was assayed in mannitol and sucrose buffer^31 containing 10 mM pyruvate and 1.5 mM malate (substrates for complex I) and 10 mM malonate (which inhibits complex II activities). The mitochondrial complex III-driven OCR was assayed in mannitol and sucrose buffer containing 0.5 mM duroquinol (substrate for complex III) and 1 μM Rot and 10 mM malonate (which inhibit both complex I and II activities). The mitochondrial complex-dependent oxygen consumption (calculated as Rot- or antimycin A-inhibitable OCR equals basal OCR less OCR after Rot or antimycin A injection) was plotted against concentrations to determine the IC50 values.

[8] = test system: LKR13 mouse lung cancer cells; experiment: LKR13 cell proliferation, IncuCyte; format: cell-based
From the text: (§3) FIG. 3. […] Cell proliferation was monitored in real-time with the continuous presence of indicated treatments until the end of each experiment. The cell confluence (as control groups reach 98% confluency) is plotted against concentration. Dashed lines represent the fitting curves used to determine the IC50 values as indicated.
as §1

[9] = test system: mitochondrial complex I; experiment: Complex I-driven OCR in A549, LLC and LKR13 cells; format: cell-based, human, mouse; conditions: A549, LLC, LKR13 cells (FIG. 4)
Method: (§4) FIG. 4. […] Dashed lines represent the fitting curves used for determination of the IC50 values.
as §2, with “The mitochondrial complex III-driven OCR was assayed in mannitol and sucrose buffer containing 0.5 mM duroquinol (substrate for complex III) and 1 μM Rot and 10 mM malonate (which inhibit both complex I and II activities).” left out

[10] = test system: mitochondrial complex III; experiment: Complex III-driven OCR in A549, LLC and LKR13 cells; format: cell-based, human, mouse; conditions: A549, LLC, LKR13 cells (FIG. 4)
Method: as §4
as §2, with “The mitochondrial complex III-driven OCR was assayed in mannitol and sucrose buffer containing 0.5 mM duroquinol (substrate for complex III) and 1 μM Rot and 10 mM malonate (which inhibit both complex I and II activities).” left out

[11] = test system: MDA-MB-231 human breast cancer cells; experiment: MDA-MB-231 cell proliferation, IncuCyte; format: cell-based; conditions: MDA-MB-231 cells
From the text: as §3, §1

[12] = test system: LLC mouse lung cancer cells; experiment: LLC cell proliferation, IncuCyte; format: cell-based
From the text: as §3, §1

[13] = test system: A549 human lung cancer cells; experiment: A549 cell proliferation, IncuCyte; format: cell-based
From the text: as §3, §1

O=C1C(O)=C([C@H]2CC[C@H](c3ccc(Cl)cc3)CC2)C(=O)c2ccccc21 [ATO, trans-2-[4-(4-chlorophenyl)cyclohexyl]-3-hydroxy-1,4-naphthalene-dione]
Treg (FoxP3+CD25+) differentiation and/or survival [1]: did not inhibit Treg differentiation and/or survival
pIC50 ([2]; MIA PaCa-2, read-out: IC50, inhibition of cell proliferation (cell confluence)): 4.74
IC50 for inhibition of cyt bc1 [3]: micromolar range
increase in IC50 for ATO caused by mutation at Q0 site [4]: ~9,000 fold
cellular uptake / intracellular accumulation [5]: uptake was considerably lower and did not accumulate in cancer cells over a 24 h period

CCCCOC1=C([C@H]2CC[C@H](c3ccc(Cl)cc3)CC2)C(=O)c2ccccc2C1=O [Butyl-ATO, reference compound]
Treg (FoxP3+CD25+) differentiation and/or survival [1]: did not inhibit Treg differentiation and/or survival
antiproliferative effect compared with corresponding Mito-ATO analog [2]: much less effective than their corresponding Mito-ATO analogs

CCCCCCCCCCOC1=C([C@H]2CC[C@H](c3ccc(Cl)cc3)CC2)C(=O)c2ccccc2C1=O [Decyl-ATO, reference compound]
Treg (FoxP3+CD25+) differentiation and/or survival [1]: did not inhibit Treg differentiation and/or survival
antiproliferative effect compared with corresponding Mito-ATO analog [2]: much less effective than their corresponding Mito-ATO analogs

O=C1C(OCCCC[P+](c2ccccc2)(c2ccccc2)c2ccccc2)=C([C@H]2CC[C@H](c3ccc(Cl)cc3)CC2)C(=O)c2ccccc21 [Mito4-ATO]
Treg (FoxP3+CD25+) differentiation and/or survival [1]: inhibited Foxp3^+ Treg differentiation and/or survival
Teff cell IFNγ production [1]: promoted Teff cell IFNγ production in a dose-dependent manner
inhibition of complex III-induced oxygen consumption [6]: potently inhibit
inhibition of complex I-induced oxygen consumption [7]: potently inhibit

O=C1C(OCCCCCCCCCC[P+](c2ccccc2)(c2ccccc2)c2ccccc2)=C([C@H]2CC[C@H](c3ccc(Cl)cc3)CC2)C(=O)c2ccccc21 [Mito10-ATO]
Treg (FoxP3+CD25+) differentiation and/or survival [1]: inhibited Foxp3^+ Treg differentiation and/or survival
Teff cell IFNγ production [1]: promoted Teff cell IFNγ production in a dose-dependent manner
effect on cell proliferation [8]: effective at halting cell proliferation
inhibition of complex I-induced oxygen consumption [9]: inhibited both mitochondrial complex I- and III-induced oxygen consumption
inhibition of complex III-induced oxygen consumption [10]: inhibited both mitochondrial complex I- and III-induced oxygen consumption
cellular uptake / intracellular accumulation [5]: accumulated inside the cells with time
inhibition of complex III-induced oxygen consumption [6]: potently inhibit
pIC50 ([6]; duroquinol, antimycin A-inhibitable OCR, read-out: IC50 to inhibit oxygen consumption by complex III): 6.11
effect on cell proliferation [11]: effective at halting cell proliferation
inhibition of complex I-induced oxygen consumption [7]: potently inhibit
effect on cell proliferation [12]: effective at halting cell proliferation
effect on cell proliferation [13]: effective at halting cell proliferation

O=C1C(OCCCCCCCCCCCC[P+](c2ccccc2)(c2ccccc2)c2ccccc2)=C([C@H]2CC[C@H](c3ccc(Cl)cc3)CC2)C(=O)c2ccccc21 [Mito12-ATO]
Treg (FoxP3+CD25+) differentiation and/or survival [1]: did not appreciably inhibit Treg differentiation
pIC50 ([2]; MIA PaCa-2, MiaPaCa-2 pancreatic cancer cells, continuous treatment, read as control reaches 98% confluency, read-out: IC50, inhibition of cell proliferation (cell confluence)): 6.46
inhibition of complex III-induced oxygen consumption [6]: did not inhibit
inhibition of complex I-induced oxygen consumption [7]: inhibited only the complex I-induced oxygen consumption

O=C1C(OCCCCCCCCCCCCCCCC[P+](c2ccccc2)(c2ccccc2)c2ccccc2)=C([C@H]2CC[C@H](c3ccc(Cl)cc3)CC2)C(=O)c2ccccc21 [Mito16-ATO]
inhibition of complex III-induced oxygen consumption [6]: did not inhibit
inhibition of complex I-induced oxygen consumption [7]: inhibited only the complex I-induced oxygen consumption
